# Target: T1, Recombinant human HSD17B13 enzyme (Homo sapiens, UniProt Q7Z5P4)
# T1 sequence (Q7Z5P4 20-300): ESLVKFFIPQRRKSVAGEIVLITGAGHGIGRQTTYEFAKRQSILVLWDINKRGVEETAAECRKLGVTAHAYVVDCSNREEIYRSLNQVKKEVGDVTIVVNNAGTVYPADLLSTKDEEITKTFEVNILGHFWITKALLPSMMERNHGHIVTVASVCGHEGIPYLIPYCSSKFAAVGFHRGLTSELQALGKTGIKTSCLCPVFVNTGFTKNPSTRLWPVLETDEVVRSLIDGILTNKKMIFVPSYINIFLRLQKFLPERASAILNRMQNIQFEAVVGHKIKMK
# Experiment: HSD17b13 NAD(P)H-Glo biochemical assay
# Settings: 50 uM estradiol, 1 mM NAD+, NAD(P)H-Glo luminescence; read-out: HSD17β13 IC50
# Summary of the method: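 Luminescent NAD(P)H-Glo read-out, taken after 1 hour at RT, measured cofactor reduction. Substrate and cofactor were estradiol at 50 uM and NAD+ at 1 mM final, reacted with the recombinant human enzyme for 3 hours at 37° C in 20 mM Tris pH7.4, 0.002% Tween-20, 0.02% BSA. Compound was pre-incubated with enzyme for 20 minutes at RT.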
row,Structure (SMILES),IC50
1,"Oc1c(F)c(-c2nn(C3CCC3)c3cc(N4CCOCC45CC5)ncc23)cc(C(F)(F)F)c1F [Compound 9.56, 3-(1-Cyclobutyl-6-(7-oxa-4-azaspiro[2.5]octan-4-yl)-1H-pyrazolo[4,3-c]pyridin-3-yl)-2,6-difluoro-5-(trifluoromethyl)phenol]",< 100 nM
2,"CS(=O)(=O)N1CCN(c2ccc3nc(-c4cc(O)c(F)c(C(F)(F)F)c4)oc3c2)CC1 [Compound 6.02, 2-Fluoro-5-(6-(4-(methylsulfonyl)piperazin-1-yl)benzo[d]oxazol-2-yl)-3-(trifluoromethyl)phenol]",< 100 nM
3,"Cn1nc(-c2cc(C(F)(F)F)c(F)c(O)c2F)c2cnc(N3CCN(S(C)(=O)=O)C4(CCC4)C3)cc21 [Compound 9.134, 2,6-Difluoro-3-(1-methyl-6-(5-(methylsulfonyl)-5,8-diazaspiro[3.5]nonan-8-yl)-1H-pyrazolo[4,3-c]pyridin-3-yl)-5-(trifluoromethyl)phenol]",< 100 nM
4,"CN1CCN(c2cc3c(cn2)c(-c2cc(C(F)(F)F)c(F)c(O)c2F)nn3C)C(=O)C1 [Compound 9.102, 1-(3-(2,4-Difluoro-3-hydroxy-5-(trifluoromethyl)phenyl)-1-methyl-1H-pyrazolo[4,3-c]pyridin-6-yl)-4-methylpiperazin-2-one]",100 to 1000 nM
5,"CS(=O)(=O)N1CCN(c2ccc3c(-c4cc(O)c(F)c(C(F)(F)F)c4)n[nH]c3c2)CC1 [Compound 9.23, 2-Fluoro-5-(6-(4-(methylsulfonyl)piperazin-1-yl)-1H-indazol-3-yl)-3-(trifluoromethyl)phenol]",100 to 1000 nM
6,"COC1CCN(C(=O)c2ccc3oc(-c4cc(O)c(F)c(F)c4)nc3c2)CC1 [Compound 1.08, (2-(3,4-Difluoro-5-hydroxyphenyl)benzo[d]oxazol-5-yl)(4-methoxypiperidin-1-yl)methanone]",1000 to 30000 nM
7,"O=C(NC12CC(C1)C2)c1ccc2oc(-c3cc(O)c(F)c(F)c3)nc2c1 [Compound 1.09, N-(Bicyclo[1.1.1]pentan-1-yl)-2-(3,4-difluoro-5-hydroxyphenyl)benzo[d]oxazole-5-carboxamide]",< 100 nM

# Second part, the compound after the results:
row,IC50,Structure (SMILES)
1,< 100 nM,"CC(C)C(=O)NC1CCN(c2ncc3c(-c4cc(C(F)(F)F)c(F)c(O)c4F)nn(C)c3n2)CC1 [Compound 18.27, N-(1-(3-(2,4-Difluoro-3-hydroxy-5-(trifluoromethyl)phenyl)-1-methyl-1H-pyrazolo[3,4-d]pyrimidin-6-y1)piperidin-4-yl)isobutyramide]"
2,< 100 nM,"Cn1nc(-c2cc(C(F)(F)F)c(F)c(O)c2F)c2cnc(N3CCC(O)(c4cccnc4)CC3)nc21 [Compound 18.88, 1-(3-(2,4-Difluoro-3-hydroxy-5-(trifluoromethyl)phenyl)-1-methyl-1H-pyrazolo[3,4-d]pyrimidin-6-yl)-4-(pyridin-3-yl)piperidin-4-ol]"
3,< 100 nM,"Cn1nc(-c2cc(C(F)(F)F)c(F)c(O)c2F)c2cnc(N3CCN(S(C)(=O)=O)C4(CC4)C3)nc21 [Compound 18.62, 2,6-Difluoro-3-(1-methyl-6-(4-(methylsulfony1)-4,7-diazaspiro [2.5]octan-7-y1)-1H-pyrazolo[3,4-d]pyrimidin-3-y1)-5-(trifluoromethyl)phenol]"
4,< 100 nM,"Cn1nc(-c2cc(C(F)(F)F)c(F)c(O)c2F)c2cnc(N3CC4CC3CN4S(C)(=O)=O)nc21 (stereo not shown) [Compound 18.110, 2,6-Difluoro-3-(1-methyl-6-(5-(methylsulfony1)-2,5-diazabicyclo[2.2.1]heptan-2-y1)-1H-pyrazolo[3,4-d]pyrimidin-3-yl)-5-(trifluoromethyl)phenol]"
5,< 100 nM,"Cn1nc(-c2cc(C(F)(F)F)c(F)c(O)c2F)c2cnc(N3CCCCC3COc3ccccc3)nc21 (stereo not shown) [Compound 18.98, 2,6-Difluoro-3-(1-methyl-6-(2-(phenoxymethyl)piperidin-1-yl)-1H-pyrazolo[3,4-d]pyrimidin-3-yl)-5-(trifluoromethyl)phenol]"

# Same assay, conditions: at 30 uM compound; read-out: HSD17β13 % inhibition at 30 uM
row,inhibition at 30 µM,Structure (SMILES)
1,41%,"CS(=O)(=O)N1CCN(c2ccc3c(-c4ccc(F)c(O)c4F)n[nH]c3c2)CC1 [Compound 11.01, 2,6-Difluoro-3-(6-(4-(methylsulfonyl)piperazin-1-yl)-1H-indazol-3-yl)phenol]"
